Laboratory results as given in article PMC9594040, “Structure-Based Discovery of Negative Allosteric Modulators of the Metabotropic Glutamate Receptor 5” (ACS Chemical Biology, 2022).
Where two headings read alike, the source gives them in different places.

Columns and labels:
human mGlu5 [1] = molecular target: T1, human mGlu5 (Homo sapiens, UniProt P41594); assay: IP1 functional assay, quisqualate-stimulated HEK293 cells expressing mGlu5; assay type: cell-based; set-up: expressed in transfected cells; host or cells: HEK293 cells, transient electroporation; glutamate transporter EAAC1 co-transfected; conditions: for functional activity in IP1 assay: agonist (quisqualate)-induced mGlu5-dependent IP1 production
Experimental: Figure 3 Evaluation of compounds F1 and F2 in functional assays. Representative dose–response curve of compounds (a) F1 and (b) F2 in an IP1 functional assay. […] Each point was performed in triplicate and is shown as a mean ± SEM of 3–5 independent experiments.
HEK293 cells were cultured in Dulbecco’s modified Eagle’s medium (DMEM) supplemented with 10% fetal bovine serum (FBS) and were maintained at 37 °C in a humidified atmosphere with 5% CO2. Transient transfection was performed using electroporation in a volume of […] with […] of plasmid encoding SNAP-tag human mGlu5, […] plasmid encoding for the glutamate transporter EAAC1 plasmids, and 10 million of HEK293 cells in electroporation buffer (50 mM K2HPO4, 20 mM CH3COOK, and 20 mM KOH, pH 7.4). After electroporation (250 V, 0.5 mF, Bio–Rad Gene Pulser electroporator; Bio-Rad Laboratories, Hercules, CA), cells were resuspended in 10 mL of DMEM supplemented with 10% FBS and seeded for 24 h into black, clear-bottom 96-well culture plates (Greiner Bio-one), pretreated with Poly-L-Ornithine 1X, at a density of 100,000 cells per well. Following 24 h of transfection, HEK293 cells were incubated for 2 h with glutamate-free DMEM GlutaMAX-I (Life Technologies). The IP1 accumulation assay kit (Cisbio Bioassays, PerkinElmer) was used for the direct quantitative measurement of IP1. Cells were stimulated by quisqualate at EC80 alone and with various concentrations of allosteric compounds, incubated for 30 min at 37 °C, 5% CO2. Cells were then lysed using the conjugate-lysis buffer mixed with the d2-labeled IP1 analogue and the Lumi4-terbium cryptate-labeled anti-IP1 antibody according to the manufacturer’s instructions. After a 1 h incubation at room temperature, the HTRF measurement was performed after excitation at 337 nm with 50 μs delay. Terbium cryptate fluorescence and tr-FRET signals were measured at 620 and 665 nm, respectively, using a PheraStar fluorimeter (BMG Labtech).

human mGlu5 [2] = molecular target: T1, human mGlu5; assay: Radioligand displacement assay (radiolabeled MPEP) on membranes of HEK293 cells stably expressing mGlu5; conditions: for Inhibition at 30 µM: Table S1, radioligand displacement at 30 µM
Experimental: Treated cells were harvested with PBS/2 mM EDTA and washed three times with ice-cold PBS and frozen at −80 °C. The frozen cell pellet was resuspended in membrane buffer (25 mM Tris/7.4, 250 mM sucrose, 2.5 mM EDTA, 2 ug/ml aprotinin, 0.5 ug/ml leupeptin and 200 nM PMSF) and homogenized with a polytron 20–30 s at maximum power. After centrifugation at 18,000 RPM for 30 min at 4 °C, the pellet was resuspended in ice-cold membrane buffer, hand-homogenized, and centrifuged as described above. This pellet was further resuspended in ice-cold membrane buffer. The protein content was measured using the Bradford method with bovine serum albumin as the standard. The membrane homogenate was frozen at −80 °C before use. After thawing, the membranes were washed once and resuspended in ice-cold 50 mM Tris–HCl, 0.9% NaCl, pH 7.4 buffer. All incubations were performed at room temperature. For the displacement binding experiments, 15 μg of membranes were incubated with 5 nM the radioligand in the presence of 10 varying concentrations of the test compound for 2 h at room temperature with shaking. At the end of the respective incubations, the suspension was filtered onto PerkinElmer GF/C glass fiber filters (1450–421) pre-soaked in 0.5% polyethyleneimine and washed rapidly four times using a Tomtec Harvester 96 Mach III cell harvester (Tomtec, Hamden, CT) with 5 mL of cold wash buffer (50 mM Tris–HCl, pH 7.4). The radioactivity trapped on the filters was measured after heat sealing the filters with MeltiLexTM A (PerkinElmer, 1450–441) in a 1450 MicroBeta TriLux counter (PerkinElmer). […] IC50 values were derived from the inhibition curve, and Ki values were calculated according to the Cheng-Prusoff equation of Ki = IC50/(1 + [L]/Kd),[61] where [L] is the concentration of radioligand and Kd is its dissociation constant at the receptor, derived from the saturation isotherm.

[3] = quisqualate 50 nM, mean ± SEM of 3–5 independent experiments, read-out: pIC50 (converted)
[4] = radioligand displacement, mean ± SEM of two experiments
[5] = analogues of F1, read-out: IC50

T1 sequence (P41594 21-1212): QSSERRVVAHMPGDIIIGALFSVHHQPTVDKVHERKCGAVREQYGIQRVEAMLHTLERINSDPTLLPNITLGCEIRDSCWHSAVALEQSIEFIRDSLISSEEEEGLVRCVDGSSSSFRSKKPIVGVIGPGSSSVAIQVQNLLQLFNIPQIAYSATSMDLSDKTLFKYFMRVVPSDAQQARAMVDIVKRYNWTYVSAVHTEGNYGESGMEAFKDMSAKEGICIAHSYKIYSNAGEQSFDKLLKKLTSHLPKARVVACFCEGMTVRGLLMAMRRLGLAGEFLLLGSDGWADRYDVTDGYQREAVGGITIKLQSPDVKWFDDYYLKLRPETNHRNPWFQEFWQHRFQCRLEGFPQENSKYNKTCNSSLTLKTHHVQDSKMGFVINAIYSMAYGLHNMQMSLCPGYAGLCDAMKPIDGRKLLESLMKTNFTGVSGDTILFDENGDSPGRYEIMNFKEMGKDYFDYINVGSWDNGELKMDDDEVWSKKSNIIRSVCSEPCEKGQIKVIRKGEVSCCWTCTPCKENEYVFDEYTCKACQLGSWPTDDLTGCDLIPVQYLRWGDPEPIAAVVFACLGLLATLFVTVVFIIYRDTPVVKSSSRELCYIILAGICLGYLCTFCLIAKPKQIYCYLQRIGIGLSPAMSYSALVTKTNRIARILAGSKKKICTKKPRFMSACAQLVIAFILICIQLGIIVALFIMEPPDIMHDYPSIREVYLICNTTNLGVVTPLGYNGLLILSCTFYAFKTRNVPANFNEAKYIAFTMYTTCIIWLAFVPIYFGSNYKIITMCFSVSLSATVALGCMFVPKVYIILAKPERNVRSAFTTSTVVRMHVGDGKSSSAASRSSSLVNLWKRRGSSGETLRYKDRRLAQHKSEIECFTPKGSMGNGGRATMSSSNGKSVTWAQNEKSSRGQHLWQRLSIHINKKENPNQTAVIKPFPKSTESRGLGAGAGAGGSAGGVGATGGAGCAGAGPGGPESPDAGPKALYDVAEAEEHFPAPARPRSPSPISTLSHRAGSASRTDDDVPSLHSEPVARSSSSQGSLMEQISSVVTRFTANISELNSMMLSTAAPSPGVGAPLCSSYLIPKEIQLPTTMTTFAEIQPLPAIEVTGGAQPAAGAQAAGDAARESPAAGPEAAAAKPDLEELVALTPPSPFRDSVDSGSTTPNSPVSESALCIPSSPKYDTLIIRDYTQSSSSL

SMILES | Inhibition at 30 µM (human mGlu5 [2]; mean ± SEM of two experiments) | other results
COc1cccc(CNc2cccc(C#N)c2)c1 [F1] |  | functional activity in IP1 assay (human mGlu5 [1]): acted as NAMs; IC50 (human mGlu5 [1]; [3]): 6310 nM; Ki (human mGlu5 [2]; [4]): 430 ± 10 nM
COCc1cccc(/C=C/c2cccc(C)n2)c1 [F2] |  | functional activity in IP1 assay (human mGlu5 [1]): acted as NAMs; IC50 (human mGlu5 [1]; [3]): 7940 nM; Ki (human mGlu5 [2]; [4]): 920 ± 120 nM; Ki (human mGlu5 [2]; resynthesized pure sample of F2, new binding assays): 550 nM
N#Cc1cccc(NCc2ccccc2)c1 [FA1] |  | functional activity in IP1 assay (human mGlu5 [1]): inactive; IC50 (human mGlu5 [1]; [5]): > 100000 nM
COc1cccc(CNc2ccccc2)c1 [FA2] |  | functional activity in IP1 assay (human mGlu5 [1]): inactive; IC50 (human mGlu5 [1]; [5]): > 100000 nM
Cc1cnn(CC2CCCCN2C(=O)c2cc(-c3ccco3)on2)c1 (centres unmarked) [L1] |  | functional activity in IP1 assay (human mGlu5 [1]): negatively modulated; Ki (human mGlu5 [2]; [4]): 990 ± 150 nM
Cn1c(SCc2noc(-c3ccoc3)n2)nnc1-c1ccco1 [L2] |  | functional activity in IP1 assay (human mGlu5 [1]): negatively modulated; Ki (human mGlu5 [2]; [4]): 1100 ± 100 nM
O=C(CSc1ccc(-n2cccn2)nn1)Nc1ccccc1Cl [L39] | 27 ± 11% | 
Cc1ccc(F)c(NC(=O)C2CC(=O)N(CCc3ccccc3)C2)c1 (centres unmarked) [L42] | 26 ± 5% | 
Cc1cccc(-c2c[nH]c(C3CCCN3C(=O)c3ccccn3)n2)c1 (centres unmarked) [L44] | 26 ± 13% | 
CCCOc1ccc(N2CC(C(=O)Nc3ccccn3)CC2=O)cc1 (centres unmarked) [L47] | 24 ± 3% | 
Cc1csc(CNC(=O)N2CCC(COCc3ccccc3)C2)n1 (centres unmarked) [L48] | 23 ± 4% | 
O=C(c1ccc(Cl)s1)N1CC(c2nc(-c3ccncc3)no2)C1 [L49] | 22 ± 1% | 
CC(NC(=O)c1cccc(F)c1)c1ccc(-n2cncn2)cc1 (centres unmarked) [L53] | 19 ± 2% | 
Cc1ccc(CNC(=O)c2ccn(COc3ccc(F)cc3)n2)o1 [L54] | 18 ± 3% | 
O=C(CSc1ccccc1)N1CC(OCc2cccc(F)c2)C1 [L55] | 18 ± 3% | 
O=C(Nc1ccc(F)c(F)c1)C1(c2cc(-c3ccco3)on2)CC1 [L56] | 18 ± 6% | 
O=C(COc1ccc2ccccc2c1)N1CC(c2nc(C3CC3)no2)C1 [L57] | 17 ± 2% | 
CCOc1ccc(C(=O)N2CC(OCc3ccc(F)cc3)C2)cc1 [L58] | 16 ± 2% | 
Cc1ccc(OCC(=O)N2CC(c3nc(-c4ccco4)no3)C2)cc1 [L59] | 15 ± 1% | 

Continued, in another order:

Inhibition at 30 µM (human mGlu5 [2]; mean ± SEM of two experiments) | SMILES | other results
29 ± 4% | CCc1noc(COc2cccc(NC(=O)c3ccccc3)c2)n1 [L37] | 
27 ± 1% | O=C(Nc1ccccn1)c1cc2occc2n1Cc1ccccc1 [L38] | 
27 ± 3% | CN(Cc1cc(-c2ccccc2)no1)C(=O)CCOc1ccccc1 [L40] | 
26 ± 2% | CC(NC(=O)COc1ccc(Cl)cc1)C(=O)Nc1ccccc1 (centres unmarked) [L41] | 
26 ± 12% | c1ccc(OCc2noc(NCc3nc4ccccc4s3)n2)cc1 [L43] | 
25 ± 7% | O=C(COc1ccccc1)Nc1cccc(NC(=O)c2ccncc2)c1 [L45] | 
24 ± 3% | O=C(NCc1ccnc(OCc2ccccc2)c1)c1cccc(F)c1 [L46] | 
20 ± 1% | O=C(COc1ccccc1)NCc1cc(-c2ccc(F)cc2)on1 [L50] | 
20 ± 6% | Cc1ccc(C(=O)Nc2cccc(NC(=O)c3ccncc3)c2)s1 [L51] | 
20 ± 1% | CCN(Cc1nc(-c2ccncc2)no1)c1ccccc1 [L52] | 
